Source: patent US4902791A, “Nitrosourea derivatives, process for their preparation and medicaments containing them” (Sanofi S.A., priority 1983, dated 1990)

Experiments:
colon carcinoma C38 [1] = assay: activity on colon carcinoma C38 implanted subcutaneously, I.P. days 2 and 9; format: in vivo, mouse
Procedure: A tumor fragment is implanted on day 0 in female B6 D2 F1 mice (19-22 g). The treatment with all of the products is administered by the I.P. route on days 2 and 9 (which is a delayed treatment). The weight of the tumors is calculated on day 20.

colon carcinoma C38 [2] = assay: colon carcinoma C38, comparison of I.V. and I.P. routes, treatment days 8, 12, 16; format: in vivo, mouse; design: key to Median wt. of the tumor D20 / Median wt. of the tumor D27: median tumor weight in mg
Procedure: With a view to verifying the antitumor activity of the product of the invention CI.1671 when it is administered by the I.V. route, another experiment was performed in which this product was administered by the I.P. route and the I.V. route for the purposes of comparison.
This experiment is carried out under particularly difficult conditions, the first day of the treatment corresponding to the eighth day after the implantation of the carcinoma C38, whereas normally the treatment starts on the day of implantation of the tumor (D0) or 1 day after (D1) the implantation of the tumor.
The median weight of the tumors on the first day of treatment (day 8) is about 12 mg (tumors varying from 8 to 40 mg). The animals are treated on days 8, 12 and 16 depending on the different routes indicated. […]

melanoma B16 [3] = assay: activity toward melanoma B16 implanted subcutaneously, I.V. route; format: in vivo, mouse
Procedure: The activity of the substances of the invention was also tested by administering the said substances of the invention by the I.V. route. 0.5 ml of an homogenate of the tumor (1 g/10 ml) is administered to B6C3F1 female mice by the subcutaneous (S.C. route) on day 0. The products of the invention and the substances used for comparison are administered on days 3, 7 and 11 in isotonic solution.
In Table IIA below the results are presented relating to the activity of the substance CI. 1675 administered by the I.V. route on the growth of the melanoma B16 implanted subcutaneously, in comparison with carmustine BCNU marketed under the name of BiCNU®.
In Table IIA below and in the subsequent tables, T represents the mean weight (or median) of the tumors in the treated mice, C represents the mean weight (or median) of the tumors in the control, untreated mice and the ratio T/C% corresponds to T/C×100.

L1210 U.S.A. strain = assay: antitumor activity on leukemia L1210 U.S.A., compounds of formula IA, I.P.; format: in vivo, mouse
Procedure: On the day of the graft (by convention day 0=DO) an inoculum of 1×10^5 tumor cells in a volume of 0.2 ml is administered to each mouse by the intraperitoneal route (I.P.).
This inoculum is prepared by diluting ascites fluid taken from the peritoneum of a donor female mouse in NCTC 109 medium (Eurobio Laboratories Paris, France), counting of the cells in a MALASSEZ cell under a microscope and adjustment of the concentration to 5×10^5cells per ml.
After the tumor graft has been made, the mice are distributed at random in cages of 5 animals. Subsequently, these cages containing 5 mice are themselves distributed at random into a control group (control) and groups treated with the products of the invention.
(§1) The doses of the products of the invention used in the different experiments are expressed in milligrams per kilogram of body weight.
(§2) The products to be injected were dissolved in isotonic sodium chloride solution.
Two protocols for treatment were used in the different experiments:
(§3) or 3 I.P. injections on D1, D5, D9.
(§4) In each experiment the animals of the control group received 1 or more injections, depending on the experimental protocol used, by the same route (I.P. or I.V.) of the same volume (0.2 ml/20 g) of the vehicle not containing the active principle (isotonic sodium chloride solution).
(§5) the number and percentage of the total of the mice surviving to D60,
(§6) the T/C×100 for treated groups.
(§7) T representing the mean survival time of the mice in the treated group
(§8) C representing the mean survival time of the mice in the control group (control).

melanoma B16 [4] = assay: antitumor activity on melanoma B16, compounds of formula IA, I.P.; format: in vivo, mouse; settings: B6 D2 F1, I.P. D1, D5, D9, 3×10 mg/kg
Procedure: The experiments were always carried out on SPF female mice B6 D2 F1/JIco (first generation hybrids between the lines C5BL/6 and DBA/2).
On the day of the graft (Day 0) an inoculum of 2×10^6 tumor cells in a volume of 0.5 ml is administered to each mouse by the intraperitoneal route (I.P.). This inoculum is prepared from a sub-cutaneous tumor excised from a donor female mouse. After excision the tumor is fragmented by means of a pair of scissors in the NCTC 109 medium. After filtration through sterile gauze in order to remove large cellular fragments, the homogeneous cell suspension obtained is counted by means of a MALASSEZ cell and diluted to the desired concentration (4×10^6 tumor cells per ml) by dilution with the NCTC 109 medium.
This was performed in the manner described previously for the leukemia L1210.
as §1, §2, §3, §4, §5, §6, §7, §8

[5] = toxicological study, lethal doses (Table IA); settings: mouse, in vivo
Text: The results relating to toxicology are brought together in Table IA below:

[6] = I.P., 10 mg/kg/inj. days 2 and 9
[7] = I.P., 20 mg/kg/inj. days 2 and 9
[8] = I.P., 30 mg/kg/inj. days 2 and 9
[9] = B6 D2 F1, I.P. D1, D5, D9, 3×1.25 mg/kg
[10] = B6 D2 F1, I.P. D1, D5, D9, 3×5 mg/kg

CO[C@@H]1O[C@H](CO)C[C@H](NC(=O)N(CCCl)N=O)[C@H]1O [CI. 1675, methyl 3-[3-(2-chloroethyl) 3-nitrosoureido] 3,4-dideoxy-β-D-xylo-hexopyranoside]
efficacy against the colon carcinoma C38 (colon carcinoma C38 [1]; I.P. route, delayed treatment): considerable efficacy | Number of mice without tumor/total (colon carcinoma C38 [1]; [6]): 1/10 | T/C (colon carcinoma C38 [1]; [6]): 67% | Weight of the tumor on day 20 (colon carcinoma C38 [1]; [6]): 272 mg | Number of mice without tumor/total (colon carcinoma C38 [1]; [7]): 7/9 | T/C (colon carcinoma C38 [1]; [7]): 0% | Weight of the tumor on day 20 (colon carcinoma C38 [1]; [7]): 0 mg | Number of mice without tumor/total (colon carcinoma C38 [1]; [8]): 7/7 | T/C (colon carcinoma C38 [1]; [8]): 0% | Weight of the tumor on day 20 (colon carcinoma C38 [1]; [8]): 0 mg | dead mice (remarks) (colon carcinoma C38 [1]; [8]): 5 | Median wt. of the tumor D20 (colon carcinoma C38 [2]; I.P. Route, 10 mg/kg/inj.): 324 | Median wt. of the tumor D27 (colon carcinoma C38 [2]; I.P. Route, 10 mg/kg/inj.): 1099 | Mice without tumor/total D20 (colon carcinoma C38 [2]; I.P. Route, 10 mg/kg/inj.): 0 | Mice without tumor/total D27 (colon carcinoma C38 [2]; I.P. Route, 10 mg/kg/inj.): 0 | T/C % D20 (colon carcinoma C38 [2]; I.P. Route, 10 mg/kg/inj.): 57% | T/C % D27 (colon carcinoma C38 [2]; I.P. Route, 10 mg/kg/inj.): 84% | Median wt. of the tumor D20 (colon carcinoma C38 [2]; I.P. Route, 15 mg/kg/inj.): 88 | Median wt. of the tumor D27 (colon carcinoma C38 [2]; I.P. Route, 15 mg/kg/inj.): 726 | Mice without tumor/total D20 (colon carcinoma C38 [2]; I.P. Route, 15 mg/kg/inj.): 0 | Mice without tumor/total D27 (colon carcinoma C38 [2]; I.P. Route, 15 mg/kg/inj.): 0 | T/C % D20 (colon carcinoma C38 [2]; I.P. Route, 15 mg/kg/inj.): 15% | T/C % D27 (colon carcinoma C38 [2]; I.P. Route, 15 mg/kg/inj.): 56% | Median wt. of the tumor D20 (colon carcinoma C38 [2]; I.P. Route, 20 mg/kg/inj.): 13 | Median wt. of the tumor D27 (colon carcinoma C38 [2]; I.P. Route, 20 mg/kg/inj.): 172 | Mice without tumor/total D20 (colon carcinoma C38 [2]; I.P. Route, 20 mg/kg/inj.): 1/8 | Mice without tumor/total D27 (colon carcinoma C38 [2]; I.P. Route, 20 mg/kg/inj.): 2/8 | T/C % D20 (colon carcinoma C38 [2]; I.P. Route, 20 mg/kg/inj.): 2% | T/C % D27 (colon carcinoma C38 [2]; I.P. Route, 20 mg/kg/inj.): 13% | Median wt. of the tumor D20 (colon carcinoma C38 [2]; I.V. Route, 10 mg/kg/inj.): 23 | Median wt. of the tumor D27 (colon carcinoma C38 [2]; I.V. Route, 10 mg/kg/inj.): 352 | Mice without tumor/total D20 (colon carcinoma C38 [2]; I.V. Route, 10 mg/kg/inj.): 0/8 | Mice without tumor/total D27 (colon carcinoma C38 [2]; I.V. Route, 10 mg/kg/inj.): 0/8 | T/C % D20 (colon carcinoma C38 [2]; I.V. Route, 10 mg/kg/inj.): 4% | T/C % D27 (colon carcinoma C38 [2]; I.V. Route, 10 mg/kg/inj.): 27% | Median wt. of the tumor D20 (colon carcinoma C38 [2]; I.V. Route, 15 mg/kg/inj.): 0 | Median wt. of the tumor D27 (colon carcinoma C38 [2]; I.V. Route, 15 mg/kg/inj.): 0 | Mice without tumor/total D20 (colon carcinoma C38 [2]; I.V. Route, 15 mg/kg/inj.): 7/8 | Mice without tumor/total D27 (colon carcinoma C38 [2]; I.V. Route, 15 mg/kg/inj.): 7/7 | T/C % D20 (colon carcinoma C38 [2]; I.V. Route, 15 mg/kg/inj.): 0% | T/C % D27 (colon carcinoma C38 [2]; I.V. Route, 15 mg/kg/inj.): 0% | Median wt. of the tumor D20 (colon carcinoma C38 [2]; I.V. Route, 20 mg/kg/inj.): 0 | Median wt. of the tumor D27 (colon carcinoma C38 [2]; I.V. Route, 20 mg/kg/inj.): 0 | Mice without tumor/total D20 (colon carcinoma C38 [2]; I.V. Route, 20 mg/kg/inj.): 6/8 | Mice without tumor/total D27 (colon carcinoma C38 [2]; I.V. Route, 20 mg/kg/inj.): 6/6 | T/C % D20 (colon carcinoma C38 [2]; I.V. Route, 20 mg/kg/inj.): 0% | T/C % D27 (colon carcinoma C38 [2]; I.V. Route, 20 mg/kg/inj.): 0% | Median weight of the tumor on day 3 (melanoma B16 [3]; 10 mg/kg/inj. days 3, 7, 11): 32,0 mg | Median weight of the tumor on day 30 (melanoma B16 [3]; 10 mg/kg/inj. days 3, 7, 11): 2 025 mg | T/C on day 30 (tumor weight) (melanoma B16 [3]; 10 mg/kg/inj. days 3, 7, 11): 25,9% | Median weight of the tumor on day 3 (melanoma B16 [3]; 15 mg/kg/inj. days 3, 7, 11): 23,0 mg | Median weight of the tumor on day 30 (melanoma B16 [3]; 15 mg/kg/inj. days 3, 7, 11): 1 044 mg | T/C on day 30 (tumor weight) (melanoma B16 [3]; 15 mg/kg/inj. days 3, 7, 11): 13,4% | Median weight of the tumor on day 3 (melanoma B16 [3]; 20 mg/kg/inj. days 3, 7, 11): 36,0 mg | Median weight of the tumor on day 30 (melanoma B16 [3]; 20 mg/kg/inj. days 3, 7, 11): 688 mg | T/C on day 30 (tumor weight) (melanoma B16 [3]; 20 mg/kg/inj. days 3, 7, 11): 8,8% | Number of survivors at D60 (L1210 U.S.A. strain; [9]): 0/10 | T/C (L1210 U.S.A. strain; [9]): 164 | Number of survivors at D60 (L1210 U.S.A. strain; [10]): 5/10 | T/C (L1210 U.S.A. strain; [10]): > 600 | Number of survivors at D60 (melanoma B16 [4]): 8/10 | T/C (melanoma B16 [4]): 258 | LD0 [5]: ≥ 20 mg/kg | LD50 [5]: ~40 mg/kg
